Measurements published in patent publication US20240150346A1, “CLASS OF HETEROAROMATIC COMPOUND, PREPARATION METHOD THEREFOR AND USE THEREOF” (INNOVSTONE THERAPEUTICS LIMITED, priority 2021, published 2024).

What follows are compounds tested against T1, human-derived receptor TLR7 (Homo sapiens, UniProt Q9NYK1) (assay: Assay on agonistic activity for human-derived receptor TLR7 (HEK-Blue hTLR7 cells, HEK-Blue Detection Medium)). Settings: 16 h incubation, absorbance at 655 nm, read-out: EC50.
T1 construct: host or cells: HEK-Blue hTLR7 cells (HEK293-derived reporter line)
T1 sequence (Q9NYK1 27-1049): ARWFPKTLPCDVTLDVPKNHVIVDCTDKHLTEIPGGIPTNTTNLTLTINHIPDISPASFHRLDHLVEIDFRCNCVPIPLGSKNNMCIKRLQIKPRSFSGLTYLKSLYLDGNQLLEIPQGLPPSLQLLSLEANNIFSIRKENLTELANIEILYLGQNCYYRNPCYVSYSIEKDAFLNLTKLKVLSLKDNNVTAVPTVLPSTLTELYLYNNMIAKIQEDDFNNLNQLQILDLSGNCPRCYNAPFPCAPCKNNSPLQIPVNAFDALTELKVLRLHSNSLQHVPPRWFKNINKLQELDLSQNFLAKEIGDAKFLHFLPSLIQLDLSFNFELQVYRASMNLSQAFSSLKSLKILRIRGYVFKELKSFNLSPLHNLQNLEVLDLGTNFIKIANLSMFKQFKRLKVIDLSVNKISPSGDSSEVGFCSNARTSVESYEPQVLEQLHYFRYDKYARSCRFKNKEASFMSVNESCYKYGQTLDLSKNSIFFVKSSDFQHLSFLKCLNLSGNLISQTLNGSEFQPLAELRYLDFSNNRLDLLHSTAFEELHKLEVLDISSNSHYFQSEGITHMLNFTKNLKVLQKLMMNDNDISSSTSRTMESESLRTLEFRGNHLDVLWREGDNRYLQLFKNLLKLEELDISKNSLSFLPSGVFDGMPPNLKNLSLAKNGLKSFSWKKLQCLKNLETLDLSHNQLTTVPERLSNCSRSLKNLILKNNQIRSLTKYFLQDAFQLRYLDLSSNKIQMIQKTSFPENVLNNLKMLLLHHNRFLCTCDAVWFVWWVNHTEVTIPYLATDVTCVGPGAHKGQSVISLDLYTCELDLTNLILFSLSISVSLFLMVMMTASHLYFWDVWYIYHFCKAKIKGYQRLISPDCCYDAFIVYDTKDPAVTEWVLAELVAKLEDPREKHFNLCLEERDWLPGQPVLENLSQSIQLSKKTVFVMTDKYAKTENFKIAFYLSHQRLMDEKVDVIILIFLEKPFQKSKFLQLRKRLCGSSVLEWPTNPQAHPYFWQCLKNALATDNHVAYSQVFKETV
Type: cell-based
Protocol: HEK-Blue™ hTLR7 cells (InvivoGen, hkb-htlr7) were cultured in a DMEM complete medium (Gibco, 12100) containing 10% FBS (Invitrogen, 10099141), 1% P/S (Invitrogen, 15140122), 10 μg/mL Blasticidin (InvivoGen, ant-bl-1), 100 μg/mL Zeocin (InvivoGen, ant-zn-1), and 100 μg/mL Normocin (InvivoGen, ant-nr-1). The cells were cultured in an incubator at 37° C. with 5% CO2. When HEK-Blue™ hTLR7 cells reached a growth density of 70%-80%, cell passage was needed.
The agonistic activity for the human-derived receptor TLR7 by HEK-Blue™ hTLR7 cells was assayed by HEK-Blue™ Detection Medium (InvivoGen, hd-det2). First, a bag of HEK-Blue™ Detection Medium powder was dissolved in 50 mL of ultra-pure sterile water for complete dissolution, and then the dissolved medium was filtered into a new 50 mL centrifuge tube through a 0.22 μm filter. Finally, antibiotics were added into the filtered detection medium until the final concentration was 1% for P/S and 100 μg/mL for Normocin. HEK-Blue™ Detection Medium was pre-heated to 37° C. in advance on the day of the assay on the activity for the TLR7 receptor, and the temperature was always maintained at 37° C.
The compound powder was dissolved in 100% DMSO (Sigma, D2650-100ML) to obtain a 10 mM stock solution, and the compound was completely dissolved by shaking with an oscillator. The stock solution of the compound was subjected to a 5-fold dilution to 2 mM with 100% DMSO. This was followed by a 3-fold serial dilution for a total of 8 concentration gradients. Then, each of the concentration gradients was subjected to a 20-fold dilution to 100 μM, 33.3 μM, 11.1 μM, 3.7 μM, 1.23 μM, […], 0.114 μM, and 0.05 μM using HEK-Blue™ Detection Medium. 20 μL of each of the dilutions was added to a 96-well cell culture plate (Corning, 3599).
On the day of the assay on the agonistic activity for the human-detived receptor TLR7, HEK-Blue™ hTLR7 cells has a growth density of 70%-80%, and the cell medium was removed. 1 mL of cell dissociation buffer (Gibco, 13151-014) was added to each 100 mm cell culture dish, and the cells were incubated in an incubator at 37° C. for 5 min. The cells were pipetted using a DMEM cell medium to obtain a single cell suspension, which was then centrifuged at 1000 rpm for 10 min to collect the cell pellet. The cell pellet was resuspended with HEK-Blue™ Detection Medium pre heated to 37° C. The cells were counted and diluted to 220,000 cells/mL. Finally, 180 μL of cell suspension (40,000 cells/well) was added to each well of the 96-well cell culture plate to which the compound had been added, and the cell suspension was mixed with the compound using a pipettor. Final concentrations of the compound were 10 μM, 3.3 μM, 1.1 μM, 0.37 μM, 0.12 μM, 0.04 μM, 0.01 μM, and 0.005 μM. After incubation in an incubator at 37° C. for 16 h, the absorbance was read at 655 nm using an M5e microplate reader (MD, USA).
The EC50 of the compound was calculated using the software GraphPad Prism (GraphPad Software, USA). The background reading of the detection culture was subtracted from the absorbance readings at 655 nm of all wells of the 96-well plate, the ratio of each well to the negative control well (the well without the compound) was calculated, and then the percentage of the ratio of each well to the positive control well (the well treated with 10 μM positive compound), i.e., the percentage of activity, was calculated. Finally, the sigmoidal dose-response (variable slope) curve between the percentage of activity and the concentration of the compound was calculated using the software GraphPad Prism to calculate the EC50 of the compound. […]

Row | Compound | EC50 [nM]
1 | COc1cc(CN2CCNCC2)ccc1Cn1c(SC)nc2c(N)nc3ccccc3c21 [Example 238] | 50 to 100
2 | COc1cc(CN2C[C@H]3CN(C)C[C@H]3C2)ccc1Cn1c(SC)nc2c(N)nc3ccccc3c21 [Example 239] | 50 to 100
3 | COc1cc(CNC(C)C)ccc1Cn1c(SC)nc2c(N)nc3ccccc3c21 [Example 241] | 50 to 100
4 | COc1cc(CN2CC(O)C2)ccc1Cn1c(SC)nc2c(N)nc3ccccc3c21 [Example 244] | 50 to 100
5 | COc1cc(CN2CC[C@H](O)C2)ccc1Cn1c(SC)nc2c(N)nc3ccccc3c21 [Example 245] | 50 to 100
6 | COc1cc(C2CCN(C)CC2)ccc1Cn1c(SC)nc2c(N)nc3ccccc3c21 [Example 246] | 50 to 100
7 | COc1cc(CN2CCN(C)CC2)ccc1Cn1c(SC)nc2c(N)nc3ccccc3c21 [Example 247] | 50 to 100
8 | COc1cc(OCCN(C)C)ccc1Cn1c(SC)nc2c(N)nc3ccccc3c21 [Example 248] | 50 to 100
9 | CCCCOc1nc(N)c2c(n1)N(Cc1ccc(Oc3ccc(CNC)cc3)cc1)CC(=O)N2 [Example 252, 4-amino-2-butoxy-8-(4-(4-((methylamino)methyl)phenoxy)benzyl)-7,8-dihydropteridin-6(5H)-one] | < 50
